From patent US20240226292A1, “METHODS AND COMPOSITIONS FOR TARGETING OF ANTIGENS AND OTHER POLYPEPTIDES TO FIRST RESPONDER DENDRITIC CELLS” (THE UNIVERSITY OF CHICAGO, priority 2021, published 2024)

Key:
[1] = Liposomes loaded with cell cycle blocking agents and FLA before OVA/CpG vaccination; format: in vivo, mice; settings: liposomes i.p. day 1, 100 ug OVA/10 ug CpG day 2
Description: FIGS. 42A-42D. […] Liposomes were loaded with two agents to block cell cycle (Cytoclastin D, CytoD, which blocks cells in G1 phase and Nocodozole, Noco, which blocks cells in G2 phase) as well as flagellin(FLA) as an TLR agonist. Mice were injected with 200 uL of 10 mM total lipid liposomes containing either (1) PBS only, Blank (2) FLA, 1 ug total per injection (3) FLA and 100 ug CytoD or (4) FLA+20 ug Noco. Mice were injected i.p with liposomes on day 1, then injected with 100 ug OVA/10 ug CpG (free formulation) on day 2 also i.p. Sera was collected via cheek bleed 1 hr after OVA/CpG injection. Mice were then sac'd on day 10 to observe anti-OVA Ig. Serum levels 1 h after injection for (FIG. 42A) IL-4, (FIG. 42B) MCP-1 and (FIG. 42C) TNF-a. (FIG. 42D) Total anti-OVA Ig on […]. N=5 mice per group.
(§1) Additional characterization and targeting of first responder dendritic cells (FRs) was performed.

BMDCs = assay: Nocodazole treated BMDCs, MP uptake and % FRs by imagestream; format: cell-based, mouse; settings: 10 nM Nocodazole for 20 hrs prior to MP treatment, versus NT
Description: FIGS. 39A-39E. FRs are more likely actively dividing. (FIG. 39A) 1 million BMDCs were incubated with 1 million MP-TLR4 for 15 mins, washed and stain with Hoest for nuclear stain (0.1 ug/mL) and anti-CD11c antibody. […] (FIG. 39B) Graph of imagestream data from FIG. 39A from an N=3 showing that most BMDC FRs are in G2 phase. (FIG. 39C) 1 million BMDCs were similarly treated as in FIG. 39A, except some samples were treated with 10 nM Nocodazole for 20 hrs prior to MP-TLR4 treatment. NT=non-treated, Noco=Nocodazole treated. (FIG. 39D) Similar to FIG. 39C, BMDCs were treated with MP-TLR7 or Blank MPs (1:1 particles/cells) for 15 mins, then tested via imagestream. Total MP uptake per 100 k BMDCs were calculated for either NT or Noco treated samples. […] N=3, Error bars indicate +/−SD.

DAP12 = DAP12 (Homo sapiens, UniProt O43914); settings: cited from earlier work
FRs = assay: CD206 targeting peptide liposomes, FR targeting in BMDCs and splenocytes; format: cell-based, mouse; settings: lipid-peptide in 200 nm liposomes at 1% total lipid, in combination with heparin or GFLSKSLVF
Description: FIGS. 48A-48B. FR targeting peptides. A peptide targeting CD206 as described in a study by Ghebremedhin et al (Ghebremedhin A, Salam AB, Adu-Addai B, et al. Preprint. bioRxiv. 2020;2020.07.27.218115; incorporated herein by reference), having sequence RWKFGGFKWR (SEQ ID NO:2), was synthesized using the same lipid-peptide display technique as shown previously and incorporated into 200 nm liposomes at 1% total lipid. (FIG. 48A) 200K BMDCs were incubated with liposomes at either 1 or 10 uM total lipid concentration for 15 mins, then incubated with MP-TLR4 (200K) for 15 mins, washed and stained. The liposomal RFU is plotted for various formulations. MMR=CD206 targeting lipid at 1% total lipid, DAP12=DAP12 targeting lipid at 1% total lipid, Hep=heparin-lipid conjugate at 10% total lipid. (FIG. 48B) similar to part A, but using 2 million splenocytes and gating on all CD11c+ cells.
as §1

PRG2 = molecular target: T1, PRG2 (Homo sapiens, UniProt P13727); settings: cited from earlier work
T1 sequence (P13727 106-222): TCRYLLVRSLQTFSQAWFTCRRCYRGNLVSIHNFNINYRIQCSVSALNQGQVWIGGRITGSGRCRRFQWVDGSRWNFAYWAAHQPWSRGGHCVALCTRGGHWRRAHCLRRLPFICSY

Chain of DAP12 (O43914 22-113, species assumed): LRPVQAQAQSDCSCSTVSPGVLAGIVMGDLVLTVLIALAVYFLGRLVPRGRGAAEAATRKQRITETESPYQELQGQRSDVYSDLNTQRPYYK

In the case of C=C1[C@@H](C)[C@H]2[C@H](Cc3ccccc3)NC(=O)[C@]23[C@H](OC(C)=O)/C=C/[C@@](C)(O)C(=O)[C@@H](C)C/C=C/[C@H]3[C@@H]1O [Cytoclastin D], the vaccine response [1] is reported as “increases vaccine response”.
With COC(=O)Nc1nc2cc(C(=O)c3cccs3)ccc2[nH]1 [Noco, Nocodazole] the “total % of FRs” value (BMDCs) was “increases in FR population”.
For GFLSKSLVF, the “binding to DAP12” value (DAP12) is given as “selectively binding”.
For “RWKFGGFKWR [peptide targeting CD206 as described by Ghebremedhin et al]”, the “identification and targeting of FRs” value (FRs) was “can identify and target FRs”.
In the case of heparin, the “affinity to PRG2” value (PRG2) is given as “moderate affinity”.
